Consider 28 compounds from patent US9845308B2, “Isoindoline inhibitors of ROR-gamma” (Vitae Pharmaceuticals, Inc., priority 2014, dated 2017).

The target in test [1] is recombinant RORγ Ligand Binding Domain (LBD) protein (Homo sapiens (Human), UniProt P51449). Put plainly: Radio-Ligand RORγ Binding Assay (Assay 1). Conditions: competition with 25-hydroxy[26,27-3H]-cholesterol, SPA; read-out: RORγ Binding Ki Range* (nM) (Assay 1). The method, then:
Radio-Ligand RORγ Binding Assay (Assay 1)
Compounds of the present invention were tested for ability to bind to RORγ in a cell-free competition assay with commercially available radio-ligand (RL), 25-hydroxy[26,27-^3H]-cholesterol (PerkinElmer, Cat. #NET674250UC), for a ligand binding site on a recombinant RORγ Ligand Binding Domain (LBD) protein expressed as a 6×His-Glutathione-S-Transferase (GST) fusion. […] The plate was shaken at 700 rpm for 20 min and incubated for 10 min at rt, after which 40 μL of poly-Lys YSi SPA beads (PerkinElmer, Cat. #RPNQ0010) were added to achieve 50 μg of the beads per well. The plate was incubated on an orbital shaker for 20 min and then for 10 min without agitation at rt. SPA signal for tritium beta radiation was registered on PerkinElmer Microbeta plate reader. […] The percent inhibition vs. concentration data were fit into a four-parameter model, and IC50 values were calculated from the fit as the concentrations corresponding to the inflection points on the dose-response curves. […]

In test [2] the target is full-length RORγt in Jurkat cells (Homo sapiens (Human), UniProt P51449). Kind of test: RORγt 5×RORE Assay in Jurkat Cells (Assay 2). Type of test: cell-based. Conditions: 5xRORE secreted Nanoluc luciferase reporter, 16-18 hrs, read-out: RORγt5X IC50 Range* (nM) (Assay 2). The procedure: [formula] RORγt 5×RORE Assay in Jurkat Cells (Assay 2)
Compounds of the present invention were tested for RORγ inverse agonist activity in a cell-based, transcriptional activity assay. […] (Promega, Cat. #N1021) using KpnI and HindIII restriction sites. […] Tested compounds were added to the cells in the same media (final concentration of DMSO was 0.1% (v/v)), and the plates were incubated at 37° C./5% CO2 for 16-18 hrs. Luciferase activity in the conditioned supernatants was determined with NanoGlo® assay reagents (Promega, Cat.#N1130).
For orientation: A reporter such as luciferase makes a cellular process visible.

Chain of full-length RORγt in Jurkat cells (P51449 other isoform, or with tags, fused parts or gaps): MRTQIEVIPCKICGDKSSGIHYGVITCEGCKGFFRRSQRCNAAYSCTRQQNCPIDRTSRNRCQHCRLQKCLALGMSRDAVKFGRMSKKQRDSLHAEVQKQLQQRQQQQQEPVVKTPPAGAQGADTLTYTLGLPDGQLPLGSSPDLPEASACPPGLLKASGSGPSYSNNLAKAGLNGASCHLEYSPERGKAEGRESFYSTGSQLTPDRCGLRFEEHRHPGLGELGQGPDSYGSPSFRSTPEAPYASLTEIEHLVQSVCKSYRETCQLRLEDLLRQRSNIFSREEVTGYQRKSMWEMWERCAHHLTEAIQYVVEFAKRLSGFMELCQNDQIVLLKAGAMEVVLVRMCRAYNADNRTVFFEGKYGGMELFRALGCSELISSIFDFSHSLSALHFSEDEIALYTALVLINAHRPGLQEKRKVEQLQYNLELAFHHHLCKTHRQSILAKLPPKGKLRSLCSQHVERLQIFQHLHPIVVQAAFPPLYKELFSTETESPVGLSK
Chain of recombinant RORγ Ligand Binding Domain (LBD) protein (P51449 269-508): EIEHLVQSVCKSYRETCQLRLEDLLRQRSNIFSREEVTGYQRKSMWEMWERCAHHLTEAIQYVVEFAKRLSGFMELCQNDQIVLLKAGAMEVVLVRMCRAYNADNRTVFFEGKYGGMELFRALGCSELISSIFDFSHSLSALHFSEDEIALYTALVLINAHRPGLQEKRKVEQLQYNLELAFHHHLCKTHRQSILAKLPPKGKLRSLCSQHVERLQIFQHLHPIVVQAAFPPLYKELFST

The term Ki denotes a dissociation constant, usually derived from enzyme kinetics or from competition with a known ligand. The term IC50 denotes the concentration that inhibits the measured activity by half. With `CCO[C@H]1CC[C@H](CN2Cc3cc(C(=O)NCc4ccc(S(=O)(=O)CC)cn4)ccc3[C@@H]2C(C)C)CC1` (single isomer, unassigned) [Compound 7a, 2-((trans-4-ethoxycyclohexyl)methyl)-N-((5-(ethylsulfonyl)pyridin-2-yl)methyl)-1-isopropylisoindoline-5-carboxamide], the Ki in test [1] was < 100 nM. The IC50 in test [2] was < 100 nM.
In the case of `CCO[C@H]1CC[C@H](CN2Cc3cc(C(=O)NCc4ccc(S(=O)(=O)CC)cn4)ccc3[C@H]2C(C)C)CC1` (single isomer, unassigned) [Compound 7b, 2-((trans-4-ethoxycyclohexyl)methyl)-N-((5-(ethylsulfonyl)pyridin-2-yl)methyl)-1-isopropylisoindoline-5-carboxamide], in test [1], the inhibitory constant (Ki) was > 1000 nM.
`CCS(=O)(=O)c1ccc(CNC(=O)c2ccc3c(c2)CN(CC2CCC(O)(C(F)(F)F)CC2)C3C(C)C)cc1` (single isomer, unassigned) [Compound 12a, N-(4-(ethylsulfonyl)benzyl)-2-((4-hydroxy-4-(trifluoromethyl)cyclohexyl)methyl)-1-isopropylisoindoline-5-carboxamide]: the inhibitory constant (Ki) in test [1] was < 100 nM. For the same compound, the 50% inhibitory concentration (IC50) in test [2] is < 100 nM.
As to `CCS(=O)(=O)c1ccc(CNC(=O)c2ccc3c(c2)CN(CC2CCC(O)(C(F)(F)F)CC2)C3C(C)C)cc1` (single isomer, unassigned) [Compound 12b, N-(4-(ethylsulfonyl)benzyl)-2-((4-hydroxy-4-(trifluoromethyl)cyclohexyl)methyl)-1-isopropylisoindoline-5-carboxamide], in test [1], the inhibition constant Ki was < 100 nM. The half-inhibitory concentration (IC50) in test [2] was > 1000 nM.
For `CCS(=O)(=O)c1ccc(CNC(=O)c2ccc3c(c2)CN(CC2CCC(O)(C(F)(F)F)CC2)C3C(C)C)cc1` (single isomer, unassigned) [Compound 12c, N-(4-(ethylsulfonyl)benzyl)-2-((4-hydroxy-4-(trifluoromethyl)cyclohexyl)methyl)-1-isopropylisoindoline-5-carboxamide], the Ki in test [1] is < 100 nM. Besides, the IC50 in test [2] was in the range of 100 to 1000 nM.
For the compound `CCS(=O)(=O)c1ccc(CNC(=O)c2ccc3c(c2)CN(CC2CCC(O)(C(F)(F)F)CC2)C3C(C)C)cc1` (single isomer, unassigned) [Compound 12d, N-(4-(ethylsulfonyl)benzyl)-2-((4-hydroxy-4-(trifluoromethyl)cyclohexyl)methyl)-1-isopropylisoindoline-5-carboxamide], in test [1], the Ki was < 100 nM. Besides, in test [2], the half-inhibitory concentration (IC50) is < 100 nM.
For the compound `CCS(=O)(=O)N1CCC(CNC(=O)c2ccc3c(c2)CN(CC2CCC(OC)(C(F)(F)F)CC2)C3C(C)C)CC1` (single isomer, unassigned) [Compound 13a, N-((1-(ethylsulfonyl)piperidin-4-yl)methyl)-1-isopropyl-2-((4-methoxy-4-(trifluoromethyl)cyclohexyl)methyl)isoindoline-5-carboxamide], the Ki in test [1] was < 100 nM. Besides, the IC50 in test [2] fell in the range of 100 to 1000 nM.
For `CCS(=O)(=O)N1CCC(CNC(=O)c2ccc3c(c2)CN(CC2CCC(OC)(C(F)(F)F)CC2)C3C(C)C)CC1` (single isomer, unassigned) [Compound 13b, N-((1-(ethylsulfonyl)piperidin-4-yl)methyl)-1-isopropyl-2-((4-methoxy-4-(trifluoromethyl)cyclohexyl)methyl)isoindoline-5-carboxamide], in that order: < 100 nM and < 100 nM.
In the case of `COC1(C(F)(F)F)CCC(CN2Cc3cc(C(=O)NCC4CCN(S(C)(=O)=O)CC4)ccc3[C@@H]2C(C)C)CC1` (single isomer, unassigned) [Compound 14b], the inhibition constant (Ki) in test [1] was < 100 nM. Also, in test [2], the half-inhibitory concentration (IC50) is > 1000 nM.
For `CCS(=O)(=O)c1ccc(CNC(=O)c2ccc3c(c2)CN(CC2CCC(C(F)(F)F)OC2)[C@H]3C(C)C)nc1` (single isomer, unassigned) [Compound 16a], in test [1], the inhibition constant (Ki) is < 100 nM. Also, in test [2], the IC50 is < 100 nM.
Turning to `CCS(=O)(=O)c1ccc(CNC(=O)c2ccc3c(c2)CN(CC2CCC(C(F)(F)F)OC2)[C@H]3C(C)C)nc1` (single isomer, unassigned) [Compound 16b], in test [2], the IC50 was < 100 nM.
For `CC[C@H]1c2ccc(C(=O)N[C@@H](COC(N)=O)c3ccc(S(=O)(=O)CC)cc3)cc2CN1C[C@H]1CC[C@H](C(F)(F)F)CC1` (single isomer, unassigned) [Compound 24a], the inhibition constant Ki in test [1] was < 100 nM. For the same compound, the IC50 in test [2] was < 100 nM.
With `CC[C@H]1c2ccc(C(=O)N[C@@H](COC(N)=O)c3ccc(S(=O)(=O)CC)cc3)cc2CN1C[C@H]1CC[C@H](C(F)(F)F)CC1` (single isomer, unassigned) [Compound 24b], in test [1], the Ki is < 100 nM. Moreover, the half-maximal inhibitory concentration (IC50) in test [2] was > 1000 nM.
With `CCS(=O)(=O)c1ccc(CNC(=O)c2ccc3c(c2)C(=O)N(Cc2ccc(C(F)(F)F)cc2)C3C(C)C)cc1` (single isomer, unassigned) [Compound 26a, N-(4-(ethylsulfonyl)benzyl)-1-isopropyl-3-oxo-2-(4-(trifluoromethyl)benzyl)isoindoline-5-carboxamide], in test [1], the Ki was < 100 nM. Further, the half-inhibitory concentration (IC50) in test [2] is < 100 nM.
With `CCS(=O)(=O)c1ccc(CNC(=O)c2ccc3c(c2)C(=O)N(Cc2ccc(C(F)(F)F)cc2)C3C(C)C)cc1` (single isomer, unassigned) [Compound 26b, N-(4-(ethylsulfonyl)benzyl)-1-isopropyl-3-oxo-2-(4-(trifluoromethyl)benzyl)isoindoline-5-carboxamide], the inhibition constant Ki in test [1] was < 100 nM. Moreover, in test [2], the IC50 fell in the range of 100 to 1000 nM.
For the compound `CCS(=O)(=O)c1ccc(CNC(=O)c2ccc3c(c2)CN(C[C@H]2CO[C@H](C(F)(F)F)OC2)[C@H]3C(C)C)nc1` (single isomer, unassigned) [Compound 32a], in test [1], the Ki is < 100 nM. Moreover, the half-inhibitory concentration (IC50) in test [2] is < 100 nM.
As for `CCS(=O)(=O)c1ccc(CNC(=O)c2ccc3c(c2)CN(C[C@H]2CO[C@H](C(F)(F)F)OC2)[C@H]3C(C)C)nc1` (single isomer, unassigned) [Compound 32b], the Ki in test [1] was < 100 nM. Further, in test [2], the IC50 is > 1000 nM.
For `CCS(=O)(=O)c1ccc([C@H](CO)NC(=O)c2ccc3c(c2)CN(C[C@H]2CC[C@H](C(F)(F)F)CC2)[C@H]3C(C)C)cc1` [Compound 3a], the Ki in test [1] is < 100 nM. Moreover, the concentration for half-maximal inhibition (IC50) in test [2] was < 100 nM.
With `CCS(=O)(=O)c1ccc([C@H](CO)NC(=O)c2ccc3c(c2)CN(C[C@H]2CC[C@H](C(F)(F)F)CC2)[C@@H]3C(C)C)cc1` [Compound 3b], the Ki in test [1] was < 100 nM. Also, the half-inhibitory concentration (IC50) in test [2] was in the range of 100 to 1000 nM.
With `CCS(=O)(=O)c1ccc([C@@H](CO)NC(=O)c2ccc3c(c2)CN(C[C@H]2CC[C@H](C(F)(F)F)CC2)[C@H]3C(C)C)cc1` [Compound 3c], in test [1], the inhibition constant Ki is < 100 nM. In addition, the IC50 in test [2] is < 100 nM.
Consider `CCS(=O)(=O)c1ccc([C@@H](CO)NC(=O)c2ccc3c(c2)CN(C[C@H]2CC[C@H](C(F)(F)F)CC2)[C@@H]3C(C)C)cc1` [Compound 3d], for which, in test [1], the inhibition constant (Ki) is < 100 nM. Besides, in test [2], the IC50 is > 1000 nM.
Take `CC(C)[C@H]1c2ccc(C(=O)NCC3CCN(S(C)(=O)=O)CC3)cc2CN1C[C@H]1CC[C@H](C(F)(F)F)CC1` [Compound 4a]: the Ki in test [1] is < 100 nM. Further, the IC50 in test [2] is < 100 nM.
As to `CC(C)[C@@H]1c2ccc(C(=O)NCC3CCN(S(C)(=O)=O)CC3)cc2CN1C[C@H]1CC[C@H](C(F)(F)F)CC1` [Compound 4b], the Ki in test [1] lay within 100 to 1000 nM.
On to `CCS(=O)(=O)c1ccc([C@H](CCO)NC(=O)c2ccc3c(c2)CN(C[C@H]2CC[C@H](C(F)(F)F)CC2)[C@H]3C(C)C)cc1` [Compound 6a], for which, in test [1], the inhibition constant Ki is < 100 nM. Also, the IC50 in test [2] is < 100 nM.
Regarding `CCS(=O)(=O)c1ccc([C@H](CCO)NC(=O)c2ccc3c(c2)CN(C[C@H]2CC[C@H](C(F)(F)F)CC2)[C@@H]3C(C)C)cc1` [Compound 6b], in test [1], the Ki was < 100 nM. Also, the half-inhibitory concentration (IC50) in test [2] was in the range of 100 to 1000 nM.
As to `CCS(=O)(=O)N1CCC(CNC(=O)c2ccc3c(c2)CN(CC2CCC(OC)(C(F)(F)F)CC2)C3C(C)C)CC1` (stereo not drawn) [Compound 13c and 13d, N-((1-(ethylsulfonyl)piperidin-4-yl)methyl)-1-isopropyl-2-((4-methoxy-4-(trifluoromethyl)cyclohexyl)methyl)isoindoline-5-carboxamide], the Ki in test [1] lay within 100 to 1000 nM.
For `CC[C@H]1c2ccc(C(=O)NCc3ccc(S(=O)(=O)NC)cc3)cc2CN1C[C@H]1CC[C@H](C(F)(F)F)CC1` [Compound 22], in test [1], the Ki is < 100 nM. The IC50 in test [2] was < 100 nM.
As for `CCC1(C)c2ccc(C(=O)NCc3ccc(S(=O)(=O)CC)cc3)cc2C(=O)N1CC1CCC(C(F)(F)F)CC1` (stereo not drawn) [Compound 31, 1-ethyl-N-(4-(ethylsulfonyl)benzyl)-1-methyl-3-oxo-2-((4-(trifluoromethyl)cyclohexyl)methyl)isoindoline-5-carboxamide], the Ki in test [1] is > 1000 nM.
